Laboratory results: patent US20030096433A1, “Homogeneous fluorescence assay” (Evotec Analytical Systems GmbH, priority 1999, published 2003)
Several values for one entry are separate records, joined by “and”; a condition that tells them apart may be missing. Equal entries are not always repeated. Where two headings read alike, the source gives them in different places.

Assays:
[1] = biological target: T1, p60src kinase (Homo sapiens, UniProt P12931); assay: Protein tyrosine kinase pharmaceutical screening assay; format: biochemical
T1 construct: purchased Upstate Biotechnology
From the text: At first p60src (Upstate Biotechnology) phosphorylates the P2 substrate. The phos-phorylated and biotinylated P1 peptide is depicted as string of beads with attached “P” (phosphate) and triangle (biotin). The phosphorylated P2 competes with P1 for binding to the TRITC-labeled anti-phosphotyrosine antibody. In absence of enzyme activity all fluorescent antibodies are bound to carrier particles via P1 which means maximal binding to carrier particles and correspondingly minimum particle number. The phosphorylated P2 catches the fluorescent antibody preventing the formation of complexes. In that case no binding to carrier particles occurs and maximal particle number will be measured. Potential inhibitors are incubated with the enzyme before the enzyme reaction is started by adding a mixture of P2 and ATP.

[2] = biological target: anti-estradiol antibody; assay: 17-β-Estradiol competitive carrier particle assay (FCS); format: binding; settings: for IC50: competition with TAMRA-estradiol, carrier particles 160 nm, FCS
From the text: The anti-estradiol-antibody was kindly provided by Dr. Schumacher (Institute of Fertility Research, Hamburg). 17-β-estradiol was obtained from Sigma. The protein A coated carrier particles (Protein A Ferrofluid™) with a mean diameter of 160 nm were from Immunicon. The optical set-up was the same as described in Example 1. […] Data evaluation and fitting procedures were the same as described in Example 1. The concentration of the conjugate (TAMRA-estradiol), the corresponding antibody and the carrier particles were kept constant in a specific series of experiments. […] The competitive assays were carried out as follows: The TAMRA conjugate of estradiol was mixed with the corresponding unlabelled molecules. […] Some experiments with JA190-estradiol conjugates were carried out in E-NAP buffer (200 mM sodium acetate, 150 mM NaCl, 0.2% BSA, pH 4). […] All estradiol conjugates, except for the BODIPY™-derivative, bound to an anti-estradiol antibody with similar affinity. […] All other conjugate-antibody interactions remained strong. […] TAMRA-estradiol was used for further assay evaluation.

[3] = test system: anti-estradiol antibodies; assay: Estradiol competition assay (fluorescence intensity distribution analysis); format: binding, Rabbit; settings: 5 nM estradiol-Tamra, 0.18 nM carrier particles, 10 x 2 s
[4] = biological target: anti-theophylline antibody; settings: read-out: K2 (KD value for the competitor)

Nc1ncnc2c1ncn2[C@@H]1O[C@H](COP(=O)(O)OP(=O)(O)OP(=O)(O)O)[C@@H](O)[C@H]1O [ATP]
Km ([1]; turn over velocity versus ATP concentration, FIG. 13, read-out: Michaelis constant KM): 16.2 ± 4 µM

Cc1cc(O)c2c(c1)C(=O)c1cc(O)cc(O)c1C2=O [Emodin]
IC50 ([1]; dose-response curves, FIG. 12): 50000 to 100000 nM

O=CN/C=C/c1cc(O)ccc1O [Erbstatin]
Activity on p60src kinase (in words) ([1]; dose-response curves, FIG. 12): inactive

CN(C)c1ccc2c(-c3ccc(C(=O)NCCOCCOCCNC(=O)CON=C4CC5C(CCC6(C)C(O)CCC56)c5ccc(O)cc54)cc3C(=O)[O-])c3ccc(N(C)C)cc3[o+]c2c1 (centres unmarked) [TAMRA-estradiol]
Kd ([2]; simultaneous fit of gB and binding degree to equations 1 and 8, read-out: K1 (KD value for the conjugate)): 0.0014 nM

C[C@]12CC[C@@H]3c4ccc(O)cc4CC[C@H]3[C@@H]1CC[C@@H]2O [estradiol, 17-β-estradiol]
IC50 ([2]; read-out: IC50 using the binding degree): 20 nM | IC50 ([2]; read-out: IC50 using the correlation amplitude gB): 3 nM | IC50 ([3]; FIG. 8A, read-out: IC50 from I1 (intensity of free conjugate), hyperbolic fit): 11.9 ± 2.4 nM | IC50 ([3]; FIG. 8B, read-out: IC50 from I2 (intensity of carrier particles with bound conjugate), hyperbolic fit): 13.3 nM and 13.2 nM | IC50 ([3]; FIG. 8C, read-out: IC50 from I2/(I1+I2), hyperbolic fit): 8.8 ± 1.1 nM

Cn1c(=O)c2[nH]cnc2n(C)c1=O [theophylline, Theophylline]
Kd ([4]; fit with K1 fixed at 10^−11 M): 0.083 nM | Kd ([4]; simultaneous fit of gB and binding degree to equations 1 and 8, K1 variable): 0.0025 nM
